The subject of the experiment is cells. As to the kind of experiment: Cell adhesion on peptide-functionalized hydrogel. Format: cell-based. The note with it: peptide at 1% of the total cysteine groups used for hydrogel formation. The text has this:
The methods of macromonomer and hydrogel formation described herein provide biocompatible macromonomers and hydrogels which are easily modified with bioactive materials to improve functions of encapsulated cells such as supporting cell growth, and the development and secretion of cellular products upon biological stimulus. By “bioactive” we mean a substance that has or cause an effect on in biological samples. In this work, the macromonomers and hydrogels were further functionalized with peptides, although other bioactive materials may be used, such as proteins, growth factors, DNA, RNA. Peptides were functionalized through the Michael addition reaction between 4A-PEG-Cys and maleimide-terminated peptides prior to the cross-linking between 4A-PEG-Cys and 4A-PEG-CThE. This reaction is quantitative and fast, providing a good control over the density of peptides attached to the resulted hydrogel. Such strategy works well, when the physiological effects of peptides on cells can be achieved at low immobilization density.

For the substance “GRGDSPG (maleimide-GRGDSPG-NH2; also: conjugated to 4A-PEG-Cys) [cell adhesion peptide, maleimide-terminated, attached to 4A-PEG-Cys by Michael addition]”, the cell adhesion result is given as “sufficient to support cell adhesion”.
